Data as given in patent US20090131465A1, “Synthesis and crystalline forms of melanocortin-4 receptor agonist” (priority 2007, published 2009).

What was measured:
[1] = chemical and physical stability of the crystalline form (statement only, no method); type: physicochemical; settings: qualitative statement, no conditions given
[2] = aqueous solubility of the crystalline form (statement only, no method); type: physicochemical; settings: qualitative statement, no conditions given

chemical and physical stability [1]: good | aqueous solubility [2]: good
SMILES: CC(=O)NC(C)(C)[C@@H]1CC2(CCN(C(=O)[C@@H]3CN(C(C)(C)C)C[C@H]3c3ccc(F)cc3F)CC2)c2cc(Cl)c(C)cc21.Cl [N-[1-((3R)-1′-1′-{[(3S,4R)-1-tert-butyl-4-(2,4-difluorophenyl)pyrrolidine-3-yl]carbonyl}-6-chloro-5-methyl-2,3-dihydrospiro[indene-1,4′-piperidine]-3-yl)-1-methylethyl]acetamide]
